The assay deals with 855422-203-R-J1-PDC complex spheroid growth. The experiment in a line: Anticancer human tumor 855422-203-R-J1-PDC patient-derived bladder carcinoma cell line growth inhibition [AhR]. As to conditions: for viability, T/C: stronger effect = lower value. The procedure, abridged: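 Complex tumor spheroids co-cultured with HUVEC and human MSC stroma; AhR antagonists tested in combination with standard-of-care and investigational agents. Top concentration at or near clinical Cmax (else 10 microM), half-log dilutions; growth expressed as percent test/control.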

The mark [1] stands for this setting: curve of first compound, second compound 0.1 µM.
[2] abbreviates: curve of first compound, second compound 0.316 µM.
Setting [3] is: curve of first compound, second compound 1 µM.
The mark [4] stands for this setting: curve of first compound, second compound 3.16 µM.
The mark [5] stands for this setting: curve of first compound, second compound 10 µM.
[6] abbreviates: second compound 0.1 µM, first compound 0.0316 µM.
Where [7] appears, read: second compound 0.1 µM, first compound 0.1 µM.
Setting [8] is: second compound 0.1 µM, first compound 0.316 µM.
[9] abbreviates: second compound 0.1 µM, first compound 1 µM.
[10] abbreviates: second compound 0.1 µM, first compound 3.16 µM.
Where [11] appears, read: second compound 0.1 µM, first compound 10 µM.
[12] abbreviates: second compound 0.316 µM, first compound 0.0316 µM.
Setting [13] is: second compound 0.316 µM, first compound 0.1 µM.
Setting [14] is: second compound 0.316 µM, first compound 0.316 µM.
[15] abbreviates: second compound 0.316 µM, first compound 1 µM.
[16] abbreviates: second compound 0.316 µM, first compound 3.16 µM.
The mark [17] stands for this setting: second compound 0.316 µM, first compound 10 µM.
The mark [18] stands for this setting: second compound 1 µM, first compound 0.0316 µM.
Where [19] appears, read: second compound 1 µM, first compound 0.1 µM.
Where [20] appears, read: second compound 1 µM, first compound 0.316 µM.
Setting [21] is: second compound 1 µM, first compound 1 µM.
Where [22] appears, read: second compound 1 µM, first compound 3.16 µM.
Where [23] appears, read: second compound 1 µM, first compound 10 µM.
Where [24] appears, read: second compound 3.16 µM, first compound 0.0316 µM.
The mark [25] stands for this setting: second compound 3.16 µM, first compound 0.1 µM.
The mark [26] stands for this setting: second compound 3.16 µM, first compound 0.316 µM.
The mark [27] stands for this setting: second compound 3.16 µM, first compound 1 µM.
The mark [28] stands for this setting: second compound 3.16 µM, first compound 3.16 µM.
[29] abbreviates: second compound 3.16 µM, first compound 10 µM.
[30] abbreviates: second compound 10 µM, first compound 0.0316 µM.
[31] abbreviates: second compound 10 µM, first compound 0.1 µM.
Setting [32] is: second compound 10 µM, first compound 0.316 µM.
The mark [33] stands for this setting: second compound 10 µM, first compound 1 µM.
The mark [34] stands for this setting: second compound 10 µM, first compound 3.16 µM.
Where [35] appears, read: second compound 10 µM, first compound 10 µM.

Values joined by “and” are separate entries in the source; they are usually repeats but may differ in a detail not shown here. Identical values can stand only once.
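Also: spheroids exposed to agents for seven days before readout.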
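For viability, T/C in this document: percent of DMSO vehicle control luminescence viability.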

On to `COc1ccc([C@@H](O)c2cc(-c3ncnc4cc(N5CCOCC5)ccc34)c(F)cc2Cl)nn1` + CC(CO)NC(=O)c1cc(-c2ccc(Cl)cc2)nn(-c2cnn(C)c2)c1=O, for which the IC50 is more than 10000 nM under setting [1]; more than 10000 nM under setting [2]; more than 10000 nM under setting [3]; more than 10000 nM under setting [4]; more than 10000 nM under setting [5]. Besides, the viability, T/C is 94.1% under setting [6]; 85.3% under setting [7]; 84.8% under setting [8]; 86.3% under setting [9]; 74.7% under setting [10]; 58.4% under setting [11]. The viability, T/C is 96.4% under setting [12]; 96.6% under setting [13]; 86% under setting [14]; 74.5% under setting [15]; 74.6% under setting [16]; 54.6% under setting [17]. Moreover, the viability, T/C under setting [18] is 85.3%; the viability, T/C under setting [19] was 90.6%; the viability, T/C under setting [20] is 92.3%; the viability, T/C under setting [21] is 86.9%; the viability, T/C under setting [22] was 72.7%; the viability, T/C under setting [23] is 55.4%. The viability, T/C is 91.5% under setting [24]; 88.5% under setting [25]; 98.9% under setting [26]; 78.5% under setting [27]; 69.6% under setting [28]; 54% under setting [29]. Further, the viability, T/C under setting [30] was 93.5%; the viability, T/C under setting [31] is 103%; the viability, T/C under setting [32] was 82%; the viability, T/C under setting [33] was 84.2%; the viability, T/C under setting [34] was 71%; the viability, T/C under setting [35] is 54.4%.
In the case of `Nc1ccccc1NC(=O)c1ccc(CNC(=O)OCc2cccnc2)cc1`, the viability, T/C is, setting by setting: (compound 0.0316 µM) 86.3% and 105% and 90.3%; (compound 0.1 µM) 87.8% and 108% and 86.7%; (compound 0.316 µM) 82.7% and 108% and 84.8%; (compound 1 µM) 82.7% and 109% and 97.4%; (compound 3.16 µM) 46.1% and 85.7% and 68.4%; (compound 10 µM) 5.42% and 27.3% and 14.9%. Besides, the IC50 (curve of compound) was 2800 nM and 6390 nM and 4690 nM.
Turning to `Nc1ncn(C2CC(O)C(CO)O2)c(=O)n1` (stereo unspecified), the viability, T/C (compound 0.00316 µM) was 94.3% and 107% and 95.8%; the viability, T/C (compound 0.01 µM) was 96.5% and 98.7% and 94.9%; the viability, T/C (compound 0.0316 µM) is 91.6% and 97.8% and 87.2%; the viability, T/C (compound 0.1 µM) was 87.2% and 88.3% and 87.7%; the viability, T/C (compound 0.316 µM) is 86.9% and 90.8% and 79.8%; the viability, T/C (compound 1 µM) was 83.3% and 83.5% and 78.8%. Besides, the IC50 (curve of compound) was more than 1000 nM.
Consider `CC1COCCN1c1cc(C2(S(C)(=N)=O)CC2)nc(-c2ccnc3[nH]ccc23)n1` (stereo unspecified), for which the viability, T/C (compound 0.0316 µM) was 93.4% and 101% and 98.8%; the viability, T/C (compound 0.1 µM) was 106% and 102% and 113%; the viability, T/C (compound 0.316 µM) was 99.9% and 101% and 88.2%; the viability, T/C (compound 1 µM) was 108% and 106% and 115%; the viability, T/C (compound 3.16 µM) was 125% and 124% and 123%; the viability, T/C (compound 10 µM) is 24.9% and 56.9% and 59.1%. Also, the IC50 (curve of compound) was 7020 nM and > 10000 nM.
On to `COc1cccc2c1C(=O)c1c(O)c3c(c(O)c1C2=O)CC(O)(C(=O)CO)CC3OC1CC(N)C(O)C(C)O1` (stereo unspecified) + Cc1cncc(-c2nc(NCCc3c[nH]c4ccccc34)c3ncn(C(C)C)c3n2)c1, for which the IC50 runs as follows: under setting [1], less than 31.6 nM; under setting [2], less than 31.6 nM; under setting [3], less than 31.6 nM; under setting [4], less than 31.6 nM; under setting [5], less than 31.6 nM. Further, the viability, T/C under setting [6] is 19.5%; the viability, T/C under setting [7] was 15.4%; the viability, T/C under setting [8] was 2.05%; the viability, T/C under setting [9] is 0.85%; the viability, T/C under setting [10] is 1.02%; the viability, T/C under setting [11] is 1.75%. Further, the viability, T/C is, setting by setting: under setting [12], 22.4%; under setting [13], 13.7%; under setting [14], 1.65%; under setting [15], 0.73%; under setting [16], 0.93%; under setting [17], 1.37%. The viability, T/C is 17.8% under setting [18]; 10.3% under setting [19]; 4.93% under setting [20]; 4.6% under setting [21]; 0.74% under setting [22]; 1.14% under setting [23]. The viability, T/C by setting is: under setting [24], 17.9%; under setting [25], 7.51%; under setting [26], 2.13%; under setting [27], 1.95%; under setting [28], 1.19%; under setting [29], 0.94%. The viability, T/C is 4.02% under setting [30]; 1.33% under setting [31]; 0.55% under setting [32]; 0.22% under setting [33]; 0.28% under setting [34]; 0.3% under setting [35].
Regarding `CCc1c2c(nc3ccc(O)cc13)-c1cc3c(c(=O)n1C2)COC(=O)[C@]3(O)CC` + Cc1cncc(-c2nc(NCCc3c[nH]c4ccccc34)c3ncn(C(C)C)c3n2)c1, the IC50 by setting is: under setting [1], 2.9 nM; under setting [2], 1.98 nM; under setting [3], 1.81 nM; under setting [4], 1.09 nM; under setting [5], less than 0.949 nM. In addition, the viability, T/C was 99.6% (second compound 0.1 µM, first compound 0.000949 µM); 48.6% (second compound 0.1 µM, first compound 0.003 µM); 12.1% (second compound 0.1 µM, first compound 0.00949 µM); 9.21% (second compound 0.1 µM, first compound 0.03 µM); 6.44% (second compound 0.1 µM, first compound 0.0949 µM); 3.75% (second compound 0.1 µM, first compound 0.3 µM). Moreover, the viability, T/C is 76.5% (second compound 0.316 µM, first compound 0.000949 µM); 35% (second compound 0.316 µM, first compound 0.003 µM); 9.9% (second compound 0.316 µM, first compound 0.00949 µM); 10% (second compound 0.316 µM, first compound 0.03 µM); 6.31% (second compound 0.316 µM, first compound 0.0949 µM); 4.22% (second compound 0.316 µM, first compound 0.3 µM). Also, the viability, T/C (second compound 1 µM, first compound 0.000949 µM) is 72.3%; the viability, T/C (second compound 1 µM, first compound 0.003 µM) is 32.6%; the viability, T/C (second compound 1 µM, first compound 0.00949 µM) was 11.4%; the viability, T/C (second compound 1 µM, first compound 0.03 µM) was 9.74%; the viability, T/C (second compound 1 µM, first compound 0.0949 µM) is 6.96%; the viability, T/C (second compound 1 µM, first compound 0.3 µM) is 4.13%. Besides, the viability, T/C is 54.2% (second compound 3.16 µM, first compound 0.000949 µM); 22.2% (second compound 3.16 µM, first compound 0.003 µM); 10.7% (second compound 3.16 µM, first compound 0.00949 µM); 4.55% (second compound 3.16 µM, first compound 0.03 µM); 5.79% (second compound 3.16 µM, first compound 0.0949 µM); 3.2% (second compound 3.16 µM, first compound 0.3 µM). For the same compound, the viability, T/C is 3.26% (second compound 10 µM, first compound 0.000949 µM); 2.2% (second compound 10 µM, first compound 0.003 µM); 3.05% (second compound 10 µM, first compound 0.00949 µM); 0.55% (second compound 10 µM, first compound 0.03 µM); 1.43% (second compound 10 µM, first compound 0.0949 µM); 1.83% (second compound 10 µM, first compound 0.3 µM).
